Laboratory results taken from a compilation of properties of binary mixtures (doi:10.1080/01932691.2021.1974876).

Experiment: xn = mol fraction of the nth substance listed
Settings: 100 kPa

With `CC[n+]1ccn(C)c1.N#C[S-]` + CO as the compound, how does the electrical conductivity (293.15 K, x1 = 0.0988) read?
The electrical conductivity was 1.83 S/m.

What about the viscosity (293.15 K, x1 = 0.0988) of the same compound?
The viscosity was 2.9 mPa·s.

And the electrical conductivity (293.15 K, x1 = 0.1966)?
The electrical conductivity was 2.24 S/m.

And the viscosity (293.15 K, x1 = 0.1966)?
Its viscosity is 5 mPa·s.

What about the electrical conductivity (293.15 K, x1 = 0.3005) of the same compound?
Its electrical conductivity is 2.25 S/m.

And the viscosity (293.15 K, x1 = 0.3005)?
Its viscosity is 7.5 mPa·s.

And the electrical conductivity (293.15 K, x1 = 0.3859)?
The electrical conductivity was 2.16 S/m.

What about the viscosity (293.15 K, x1 = 0.3859) of the same compound?
The viscosity was 9.5 mPa·s.

What about the electrical conductivity (293.15 K, x1 = 0.5006) of the same compound?
The electrical conductivity was 2 S/m.

And the viscosity (293.15 K, x1 = 0.5006)?
Its viscosity is 12.3 mPa·s.

And the electrical conductivity (293.15 K, x1 = 0.5972)?
Its electrical conductivity is 1.87 S/m.

What about the viscosity (293.15 K, x1 = 0.5972) of the same compound?
The viscosity was 14.9 mPa·s.

And the electrical conductivity (293.15 K, x1 = 0.6996)?
Its electrical conductivity is 1.76 S/m.

What about the viscosity (293.15 K, x1 = 0.6996) of the same compound?
The viscosity was 18 mPa·s.

And the electrical conductivity (293.15 K, x1 = 0.804)?
The electrical conductivity was 1.68 S/m.

What about the viscosity (293.15 K, x1 = 0.804) of the same compound?
Its viscosity is 21 mPa·s.

And the electrical conductivity (293.15 K, x1 = 0.8997)?
The electrical conductivity was 1.64 S/m.

What about the viscosity (293.15 K, x1 = 0.8997) of the same compound?
Its viscosity is 24 mPa·s.

What about the electrical conductivity (293.15 K, x1 = 1) of the same compound?
The electrical conductivity was 1.64 S/m.

What about the viscosity (293.15 K, x1 = 1) of the same compound?
The viscosity was 27 mPa·s.

And the electrical conductivity (298.15 K, x1 = 0.0988)?
Its electrical conductivity is 2.08 S/m.

And the viscosity (298.15 K, x1 = 0.0988)?
Its viscosity is 2.5 mPa·s.

What about the electrical conductivity (298.15 K, x1 = 0.1966) of the same compound?
The electrical conductivity was 2.44 S/m.

What about the viscosity (298.15 K, x1 = 0.1966) of the same compound?
Its viscosity is 4.4 mPa·s.

What about the electrical conductivity (298.15 K, x1 = 0.3005) of the same compound?
The electrical conductivity was 2.45 S/m.

What about the viscosity (298.15 K, x1 = 0.3005) of the same compound?
Its viscosity is 6.4 mPa·s.

What about the electrical conductivity (298.15 K, x1 = 0.3859) of the same compound?
The electrical conductivity was 2.36 S/m.

What about the viscosity (298.15 K, x1 = 0.3859) of the same compound?
Its viscosity is 8.1 mPa·s.

What about the electrical conductivity (298.15 K, x1 = 0.5006) of the same compound?
The electrical conductivity was 2.2 S/m.

And the viscosity (298.15 K, x1 = 0.5006)?
Its viscosity is 10.6 mPa·s.

What about the electrical conductivity (298.15 K, x1 = 0.6996) of the same compound?
Its electrical conductivity is 1.96 S/m.

What about the viscosity (298.15 K, x1 = 0.6996) of the same compound?
The viscosity was 15.2 mPa·s.

And the electrical conductivity (298.15 K, x1 = 0.804)?
The electrical conductivity was 1.88 S/m.

What about the viscosity (298.15 K, x1 = 0.804) of the same compound?
The viscosity was 18 mPa·s.

What about the electrical conductivity (298.15 K, x1 = 0.8997) of the same compound?
The electrical conductivity was 1.84 S/m.

What about the viscosity (298.15 K, x1 = 0.8997) of the same compound?
Its viscosity is 20 mPa·s.

And the electrical conductivity (298.15 K, x1 = 1)?
Its electrical conductivity is 1.83 S/m.

And the viscosity (298.15 K, x1 = 1)?
Its viscosity is 23 mPa·s.

And the electrical conductivity (303.15 K, x1 = 0.0988)?
Its electrical conductivity is 2.34 S/m.

What about the viscosity (303.15 K, x1 = 0.0988) of the same compound?
Its viscosity is 2.1 mPa·s.

What about the electrical conductivity (303.15 K, x1 = 0.1966) of the same compound?
The electrical conductivity was 2.67 S/m.

And the viscosity (303.15 K, x1 = 0.1966)?
The viscosity was 3.8 mPa·s.

What about the electrical conductivity (303.15 K, x1 = 0.3005) of the same compound?
The electrical conductivity was 2.66 S/m.

What about the viscosity (303.15 K, x1 = 0.3005) of the same compound?
Its viscosity is 5.5 mPa·s.

What about the electrical conductivity (303.15 K, x1 = 0.5006) of the same compound?
The electrical conductivity was 2.42 S/m.

And the viscosity (303.15 K, x1 = 0.5006)?
Its viscosity is 9.1 mPa·s.

What about the electrical conductivity (303.15 K, x1 = 0.5972) of the same compound?
Its electrical conductivity is 2.29 S/m.

And the viscosity (303.15 K, x1 = 0.5972)?
Its viscosity is 11 mPa·s.

And the electrical conductivity (303.15 K, x1 = 0.6996)?
Its electrical conductivity is 2.18 S/m.

And the viscosity (303.15 K, x1 = 0.6996)?
The viscosity was 13.1 mPa·s.

What about the electrical conductivity (303.15 K, x1 = 0.804) of the same compound?
The electrical conductivity was 2.1 S/m.

And the viscosity (303.15 K, x1 = 0.804)?
Its viscosity is 15.3 mPa·s.

And the electrical conductivity (303.15 K, x1 = 0.8997)?
The electrical conductivity was 2.05 S/m.

What about the viscosity (303.15 K, x1 = 0.8997) of the same compound?
Its viscosity is 18 mPa·s.

What about the electrical conductivity (308.15 K, x1 = 0.1966) of the same compound?
Its electrical conductivity is 2.89 S/m.

And the viscosity (308.15 K, x1 = 0.1966)?
Its viscosity is 3.3 mPa·s.

What about the electrical conductivity (308.15 K, x1 = 0.3005) of the same compound?
The electrical conductivity was 2.88 S/m.

And the viscosity (308.15 K, x1 = 0.3005)?
The viscosity was 4.8 mPa·s.

What about the electrical conductivity (308.15 K, x1 = 0.3859) of the same compound?
Its electrical conductivity is 2.81 S/m.

And the viscosity (308.15 K, x1 = 0.3859)?
Its viscosity is 6.1 mPa·s.

What about the electrical conductivity (308.15 K, x1 = 0.5972) of the same compound?
The electrical conductivity was 2.52 S/m.

What about the viscosity (308.15 K, x1 = 0.5972) of the same compound?
The viscosity was 9.6 mPa·s.

What about the electrical conductivity (308.15 K, x1 = 0.6996) of the same compound?
The electrical conductivity was 2.41 S/m.

What about the viscosity (308.15 K, x1 = 0.6996) of the same compound?
Its viscosity is 11.4 mPa·s.

And the electrical conductivity (308.15 K, x1 = 0.804)?
Its electrical conductivity is 2.33 S/m.

What about the viscosity (308.15 K, x1 = 0.804) of the same compound?
Its viscosity is 13.4 mPa·s.

And the electrical conductivity (308.15 K, x1 = 0.8997)?
The electrical conductivity was 2.29 S/m.

And the viscosity (308.15 K, x1 = 0.8997)?
The viscosity was 15.5 mPa·s.

What about the electrical conductivity (313.15 K, x1 = 0.0988) of the same compound?
The electrical conductivity was 2.82 S/m.

And the viscosity (313.15 K, x1 = 0.0988)?
Its viscosity is 1.7 mPa·s.

And the electrical conductivity (313.15 K, x1 = 0.1966)?
The electrical conductivity was 3.12 S/m.

And the viscosity (313.15 K, x1 = 0.1966)?
Its viscosity is 2.9 mPa·s.

What about the electrical conductivity (313.15 K, x1 = 0.3005) of the same compound?
The electrical conductivity was 3.12 S/m.

And the viscosity (313.15 K, x1 = 0.3005)?
The viscosity was 4.2 mPa·s.

And the electrical conductivity (313.15 K, x1 = 0.3859)?
The electrical conductivity was 3.04 S/m.

What about the viscosity (313.15 K, x1 = 0.3859) of the same compound?
The viscosity was 5.3 mPa·s.

What about the electrical conductivity (313.15 K, x1 = 0.5006) of the same compound?
Its electrical conductivity is 2.89 S/m.

What about the viscosity (313.15 K, x1 = 0.5006) of the same compound?
Its viscosity is 6.9 mPa·s.

And the electrical conductivity (313.15 K, x1 = 0.5972)?
Its electrical conductivity is 2.77 S/m.

What about the viscosity (313.15 K, x1 = 0.5972) of the same compound?
The viscosity was 8.3 mPa·s.

And the electrical conductivity (313.15 K, x1 = 0.6996)?
Its electrical conductivity is 2.66 S/m.

And the viscosity (313.15 K, x1 = 0.6996)?
The viscosity was 10 mPa·s.

And the electrical conductivity (313.15 K, x1 = 0.804)?
The electrical conductivity was 2.58 S/m.

What about the viscosity (313.15 K, x1 = 0.804) of the same compound?
Its viscosity is 11.7 mPa·s.

What about the electrical conductivity (313.15 K, x1 = 0.8997) of the same compound?
Its electrical conductivity is 2.54 S/m.

And the viscosity (313.15 K, x1 = 0.8997)?
Its viscosity is 13.5 mPa·s.

And the electrical conductivity (313.15 K, x1 = 1)?
Its electrical conductivity is 2.52 S/m.

And the viscosity (313.15 K, x1 = 1)?
The viscosity was 15.4 mPa·s.

What about the electrical conductivity (318.15 K, x1 = 0.0988) of the same compound?
The electrical conductivity was 3.06 S/m.

What about the viscosity (318.15 K, x1 = 0.0988) of the same compound?
Its viscosity is 1.5 mPa·s.

And the electrical conductivity (318.15 K, x1 = 0.1966)?
Its electrical conductivity is 3.4 S/m.

And the viscosity (318.15 K, x1 = 0.1966)?
Its viscosity is 2.5 mPa·s.

What about the electrical conductivity (318.15 K, x1 = 0.3005) of the same compound?
The electrical conductivity was 3.4 S/m.

And the viscosity (318.15 K, x1 = 0.3005)?
The viscosity was 3.6 mPa·s.

And the electrical conductivity (318.15 K, x1 = 0.3859)?
The electrical conductivity was 3.31 S/m.

And the viscosity (318.15 K, x1 = 0.3859)?
The viscosity was 4.6 mPa·s.

What about the electrical conductivity (318.15 K, x1 = 0.5006) of the same compound?
Its electrical conductivity is 3.15 S/m.

And the viscosity (318.15 K, x1 = 0.5006)?
The viscosity was 6 mPa·s.

And the electrical conductivity (318.15 K, x1 = 0.5972)?
The electrical conductivity was 3.04 S/m.

And the viscosity (318.15 K, x1 = 0.5972)?
The viscosity was 7.3 mPa·s.

And the electrical conductivity (318.15 K, x1 = 0.6996)?
The electrical conductivity was 2.93 S/m.

And the viscosity (318.15 K, x1 = 0.6996)?
The viscosity was 8.8 mPa·s.

What about the electrical conductivity (318.15 K, x1 = 0.804) of the same compound?
The electrical conductivity was 2.85 S/m.

What about the viscosity (318.15 K, x1 = 0.804) of the same compound?
Its viscosity is 10.3 mPa·s.

What about the electrical conductivity (318.15 K, x1 = 0.8997) of the same compound?
The electrical conductivity was 2.81 S/m.

What about the viscosity (318.15 K, x1 = 0.8997) of the same compound?
Its viscosity is 11.9 mPa·s.

And the electrical conductivity (318.15 K, x1 = 1)?
Its electrical conductivity is 2.79 S/m.

And the viscosity (318.15 K, x1 = 1)?
Its viscosity is 13.6 mPa·s.

What about the electrical conductivity (323.15 K, x1 = 0.0988) of the same compound?
Its electrical conductivity is 3.31 S/m.

What about the viscosity (323.15 K, x1 = 0.0988) of the same compound?
The viscosity was 1.35 mPa·s.

And the electrical conductivity (323.15 K, x1 = 0.3859)?
The electrical conductivity was 3.6 S/m.

What about the viscosity (323.15 K, x1 = 0.3859) of the same compound?
The viscosity was 4 mPa·s.

What about the electrical conductivity (323.15 K, x1 = 0.5006) of the same compound?
The electrical conductivity was 3.4 S/m.

What about the viscosity (323.15 K, x1 = 0.5006) of the same compound?
Its viscosity is 5.3 mPa·s.

And the electrical conductivity (323.15 K, x1 = 0.5972)?
Its electrical conductivity is 3.3 S/m.

And the viscosity (323.15 K, x1 = 0.5972)?
The viscosity was 6.4 mPa·s.

What about the electrical conductivity (323.15 K, x1 = 0.6996) of the same compound?
Its electrical conductivity is 3.22 S/m.

And the viscosity (323.15 K, x1 = 0.6996)?
The viscosity was 7.7 mPa·s.

Which results are given for `CO` + CC[n+]1ccn(C)c1.N#C[S-]?
viscosity (293.15 K, x2 = 0): 0.59 mPa·s; viscosity (303.15 K, x2 = 0): 0.51 mPa·s; viscosity (308.15 K, x2 = 0): 0.48 mPa·s; viscosity (313.15 K, x2 = 0): 0.45 mPa·s; viscosity (323.15 K, x2 = 0): 0.41 mPa·s
